# Laboratory results taken from US20240366807A1, “RADIOFLUORINATED AGENTS FOR PET IMAGING SELECTIVELY TARGETING FIBROBLAST ACTIVATION PROTEIN” (Trustees of tufts college, priority 2021, published 2024).
# Where two headings read alike, the source gives them in different places.
# Experiments:
# recombinant human PREP = recombinant human PREP (Homo sapiens (Human), UniProt P48147); experiment: In vitro enzyme IC50 assay, PREP; format: biochemical; conditions: read-out: PREP Inhibition (IC50)
# Source text: (§1) The peptide libraries XPYSWS-NH2, Ac-XPYSWS-NH2, GXYSWS-NH2, and Ac-GXYSWS-NH2, where X represents all natural amino acids except cysteine were synthesized by the Tufts University Core Facility. The DPPIV enzyme used for the specificity studies was previously purified by our laboratory at Tufts University from human placenta, and the purified human FAP enzyme used for these studies was kindly provided by Syrxx, Inc. For the in vitro IC50 determination assays, recombinant human DPPIV, DPP9, FAP, and PREP were purchased from R&D Systems, and DPP8 was from Biomol International. Buffer systems used were A (25 mM Tris, pH 8.0), B (50 mM Tris, pH 7.5), C (50 mM Tris, 140 mM NaCl, pH 7.5), D (25 mM Tris, 250 mM NaCl, pH 7.5), and E (20 mM Tris, 20 mM KCl, pH 7.4).
# (§2) In Vitro Enzyme IC50 Assays
# (§3) Enzymatic activity of DPPIV, DPP8, DPP9, FAP, and PREP was measured at 25° C. on a Molecular Devices M2^e multidetection microtiter plate reader, monitoring the fluorescence at an excitation wavelength of 380 nm and an emission wavelength of 460 nm. The substrate was either H-Gly-Pro-AMC for the DPPIV, DPP8, and DPP9 assays or Z-Gly-Pro-AMC for the FAP and PREP assays.
# (§4) A (DPPIV and DPP9), buffer B (DPP8), buffer C (FAP), or buffer D (PREP) and a suitable amount of inhibitor (ranging between 10^−4 and 10^−11M) in a total volume of 210 μL. The final enzyme concentrations were 0.1, 0.8, 0.4, 1.2, and 0.6 nM for DPPIV, DPP8, DPP9,
# (§5) FAP, and PREP, respectively. […] Those prepared in pH 2.0 solution were preincubated at 25° C. for 4 h prior to dilution. Immediately prior to the commencement of the experiment, the 100 mM stocks were further diluted to 10^−3M in the appropriate assay buffer, from which 1:10 serial dilutions were prepared. All inhibitors were tested in triplicate.
# recombinant human FAP = recombinant human FAP (Homo sapiens (Human), UniProt Q12884); experiment: In vitro enzyme IC50 assay, FAP; format: biochemical; conditions: for IC50: read-out: FAP Inhibition (IC50)
# Source text: as §1, §2, §3, §4, §5
# recombinant human FAP, sequence (Q12884 whole entry): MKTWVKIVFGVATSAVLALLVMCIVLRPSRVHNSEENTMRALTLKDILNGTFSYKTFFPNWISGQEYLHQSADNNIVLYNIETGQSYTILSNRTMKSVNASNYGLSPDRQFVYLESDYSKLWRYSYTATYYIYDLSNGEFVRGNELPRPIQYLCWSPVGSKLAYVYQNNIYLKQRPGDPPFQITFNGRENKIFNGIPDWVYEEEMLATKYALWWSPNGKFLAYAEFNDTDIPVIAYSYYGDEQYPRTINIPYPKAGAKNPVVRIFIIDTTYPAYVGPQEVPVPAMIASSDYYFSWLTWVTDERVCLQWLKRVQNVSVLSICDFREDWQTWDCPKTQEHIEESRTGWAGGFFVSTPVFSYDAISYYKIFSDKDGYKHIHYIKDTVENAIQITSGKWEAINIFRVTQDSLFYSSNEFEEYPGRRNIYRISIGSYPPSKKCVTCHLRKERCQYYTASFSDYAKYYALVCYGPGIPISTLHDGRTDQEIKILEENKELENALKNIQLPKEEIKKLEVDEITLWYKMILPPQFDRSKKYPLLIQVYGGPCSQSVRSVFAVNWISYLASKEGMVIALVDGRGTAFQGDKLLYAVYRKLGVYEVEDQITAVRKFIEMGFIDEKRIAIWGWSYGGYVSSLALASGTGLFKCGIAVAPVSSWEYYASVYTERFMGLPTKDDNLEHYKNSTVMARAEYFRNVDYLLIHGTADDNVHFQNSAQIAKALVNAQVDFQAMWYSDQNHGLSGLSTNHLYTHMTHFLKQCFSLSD
# recombinant human PREP, sequence (P48147 whole entry): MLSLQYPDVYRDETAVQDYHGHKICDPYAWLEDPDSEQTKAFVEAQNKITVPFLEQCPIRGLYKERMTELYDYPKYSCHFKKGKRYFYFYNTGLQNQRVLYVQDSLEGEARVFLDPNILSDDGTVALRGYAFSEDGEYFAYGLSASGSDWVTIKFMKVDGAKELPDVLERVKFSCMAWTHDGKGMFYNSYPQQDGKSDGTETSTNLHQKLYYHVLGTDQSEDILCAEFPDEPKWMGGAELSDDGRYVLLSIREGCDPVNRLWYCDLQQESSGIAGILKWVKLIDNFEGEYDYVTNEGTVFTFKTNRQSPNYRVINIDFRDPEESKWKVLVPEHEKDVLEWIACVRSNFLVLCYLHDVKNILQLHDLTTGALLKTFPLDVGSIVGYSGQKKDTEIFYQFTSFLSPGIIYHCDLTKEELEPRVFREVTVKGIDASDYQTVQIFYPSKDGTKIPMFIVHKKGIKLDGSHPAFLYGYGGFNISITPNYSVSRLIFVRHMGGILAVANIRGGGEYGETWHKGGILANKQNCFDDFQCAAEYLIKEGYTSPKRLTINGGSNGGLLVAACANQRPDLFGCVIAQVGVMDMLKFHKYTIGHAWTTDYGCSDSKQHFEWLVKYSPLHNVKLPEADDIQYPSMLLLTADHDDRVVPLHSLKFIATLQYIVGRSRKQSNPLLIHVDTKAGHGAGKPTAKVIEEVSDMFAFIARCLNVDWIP
IC50 (recombinant human PREP; pH2.0) [nM],IC50 (recombinant human PREP; pH7.5) [nM],"FAP Selectivity, IC50(PREP)/IC50(FAP) (recombinant human FAP; pH2.0)",IC50 (recombinant human FAP; pH2.0) [nM],"FAP Selectivity, IC50(PREP)/IC50(FAP) (recombinant human FAP; pH7.5)",IC50 (recombinant human FAP; pH7.5) [nM],Structure (SMILES)
4100,5700,19,220,22,260,C[C@@H](NC(=O)c1ccc(F)cc1)C(=O)N1CCC[C@H]1B(O)O
2000,2300,14,140,16,140,C[C@@H](NC(=O)c1cc(F)ncc1F)C(=O)N1CCC[C@H]1B(O)O
2300,2500,23,100,19,130,C[C@@H](NC(=O)c1cc(F)nc(F)c1)C(=O)N1CCC[C@H]1B(O)O
1900,2200,15,130,15,150,C[C@@H](NC(=O)c1ccnc(F)c1F)C(=O)N1CCC[C@H]1B(O)O
2000,1900,8.3,240,7.9,240,C[C@@H](NC(=O)c1ccc(OCF)cc1)C(=O)N1CCC[C@H]1B(O)O
48,53,0.37,130,0.41,130,C[C@@H](NC(=O)c1cccc(OCF)c1)C(=O)N1CCC[C@H]1B(O)O
790,1400,1.1,690,3.6,390,C[C@@H](NC(=O)c1ccc(F)cc1F)C(=O)N1CCC[C@H]1B(O)O
1200,1500,2.7,450,4.5,330,C[C@@H](NC(=O)c1c(F)c(F)c(F)c(F)c1F)C(=O)N1CCC[C@H]1B(O)O
2200,3100,5.6,390,4.8,650,C[C@@H](NC(=O)c1ccccc1F)C(=O)N1CCC[C@H]1B(O)O
